What all share (assay type): cell-based
Data set [1] addresses T1, interaction between the KRS protein and the laminin receptor (LR) (Homo sapiens, UniProt Q15046).
T1 construct: expressed in transfected cells; host or cells: yeast EGY/SH cells
Briefly: Yeast Two Hybrid inhibition of the interaction between the KRS protein and the laminin receptor (LR). Particulars: 1 μL of 20 mM DMSO solution per 200 μL culture; 30° C., 6 days; absorbance 540 nm; non-treated control = 100%. The procedure: The inhibitory activity against the interaction between the KRS protein and the laminin receptor (LR) was evaluated according to the Yeast Two Hybrid method described in WO2011/056021. According to the disclosures of WO2011/056021, we prepared a vector obtained by cloning the KRS gene in the LexA vector (Clontech) and a vector obtained by cloning the LR gene in the B42 vector (Clontech). The yeast cells, i.e., EGY/SH cells were co-transformed with the LexA-KRS vector and the B42-LR vector. The co-transformation was carried out using the Yeastmaker yeast transformation system2 kit (Clontech), according to the manufacturer's instruction. […] The cultured yeast cells were diluted with the said galactose medium, until the absorbance at 540 nm attains to about 0.15 to 0.2. The diluted culture (200 μL), containing the yeast cells, was added to each well of a 96-well plate. Each test compound was dissolved in dimethyl sulfoxide at a concentration of 20 mM and then the resulting solutions (1 μL) were added to each well. The plate was cultured at 30° C. for 6 days and then the absorbance of the each well was measured at 540 nm.
(§1) And also, specificity of the inhibitory activity was evaluated, using the yeast cells cotransformed with the LexA-KRS vector and the B42-AIMP2 vector; and the yeast cells co-transformed with the LexA-KRS vector and the B42-AIMP3 vector, which were respectively prepared according to WO2011/056021. The co-transformation was carried out using the Yeastmaker yeast transformation system2 kit (Clontech), according to the manufacturer's instruction. […] The cultured yeast cells were diluted with the said galactose medium, until the absorbance at 540 nm attains to about 0.15 to 0.2. The diluted culture (200 μL), containing the yeast cells, was added to each well of a 96-well plate. Each test compound was dissolved in dimethyl sulfoxide at a concentration of 20 mM and then the resulting solutions (1 μL) were added to each well. The plate was cultured at 30° C. for 6 days and then the absorbance of each well was measured at 540 nm. The respective yeast cell proliferation rates (%) in the treated samples were calculated in comparison with those of the non-treated control (100%) and the results thereof are shown in Table 1 below.
When KRS is bound to LR, the trans-activation domain is come close to the DNA-binding domain and the genes for synthesizing essential amino acids are expressed, which leads to normal growth of the transformed yeasts, thereby increasing the absorbance.

The target of data set [2] is T2, binding between KRS and AIMP2 (Homo sapiens, UniProt Q15046).
T2 construct: expressed in transfected cells; host or cells: yeast cells (co-transformed)
Briefly: Yeast Two Hybrid specificity test, LexA-KRS / B42-AIMP2 co-transformed yeast cells. Particulars: 1 μL of 20 mM DMSO solution per 200 μL culture; 30° C., 6 days; absorbance 540 nm; non-treated control = 100%. The method, then: as §1

Data set [3] addresses T3, binding between KRS and AIMP3 (Homo sapiens, UniProt Q15046).
T3 construct: expressed in transfected cells; host or cells: yeast cells (co-transformed)
Briefly: Yeast Two Hybrid specificity test, LexA-KRS / B42-AIMP3 co-transformed yeast cells. The settings on record: 1 μL of 20 mM DMSO solution per 200 μL culture; 30° C., 6 days; absorbance 540 nm; non-treated control = 100%. The procedure: as §1

In data set [4] the test system is A549 cells. Briefly: Cell Migration Assay (transwell, laminin). Particulars: Homo sapiens, laminin 10 μg/mL in lower well, test compounds 0.39˜100 μM, 6 hours at 37° C. The method in brief:
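A549 cells in serum-free RPMI1640 migrated 6 h at 37 °C through 8.0 μm-pore polycarbonate membranes toward laminin (10 μg/mL), compound (0.39–100 μM) in both chambers. Migrated cells hematoxylin-stained, counted at three fields (×20); IC50 by non-linear regression.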

The nature of data set [5]: Cytotoxicity Study (WST). The settings on record: human; A549 cells, serum-free RPMI1640, test compounds 0.39˜100 μM, 5 hours + 2 hours WST, absorbance 450 nm. The procedure:
A549 cells (Korean Cell Line Bank) was added to a 96-well plate in a concentration of 2×10^4 cells per well and then a RPMI1640 medium supplemented with 10% fetal bovine serum was added to each well. After culturing 24 hours, the medium was changed with a serum-free RPMI1640 medium and then test compounds (0.39˜100 μM) were treated. After culturing at 37° C. for 5 hours in a CO2 incubator, 10 μL of a WST reagent (Roche) was added to each well, which was then cultured for additional 2 hours. A microplate reader was used to measure the absorbance at 450 nm. From the absorbance values, each IC50 value was calculated by non-linear regression curve fit using the ‘GraphPad Prism” program.
The cytotoxicity study was performed, using the reduction of WST by the NADH produced by the electron transport system of mitochondria. […] Therefore, the compounds of the present invention have therapeutic activity against a disease associated with cancer cell metastasis through (i) selective inhibition against the binding between KRS and LR and (ii) inhibition of cell migration, rather than non-specific cytotoxicity.

Here are results for 20 compounds from patent US20150011528A1, “PHENYLIMIDE-CONTAINING BENZOTHIAZOLE DERIVATIVE OF ITS SALT AND PHARMACEUTICAL COMPOSITION COMPRISING THE SAME” (YUHAN CORPORATION, priority 2011, published 2015).

The structures appear in SMILES notation.

In general, IC50 refers to the point on the concentration scale where inhibition reaches its midpoint.

T1 sequence (Q15046 whole entry): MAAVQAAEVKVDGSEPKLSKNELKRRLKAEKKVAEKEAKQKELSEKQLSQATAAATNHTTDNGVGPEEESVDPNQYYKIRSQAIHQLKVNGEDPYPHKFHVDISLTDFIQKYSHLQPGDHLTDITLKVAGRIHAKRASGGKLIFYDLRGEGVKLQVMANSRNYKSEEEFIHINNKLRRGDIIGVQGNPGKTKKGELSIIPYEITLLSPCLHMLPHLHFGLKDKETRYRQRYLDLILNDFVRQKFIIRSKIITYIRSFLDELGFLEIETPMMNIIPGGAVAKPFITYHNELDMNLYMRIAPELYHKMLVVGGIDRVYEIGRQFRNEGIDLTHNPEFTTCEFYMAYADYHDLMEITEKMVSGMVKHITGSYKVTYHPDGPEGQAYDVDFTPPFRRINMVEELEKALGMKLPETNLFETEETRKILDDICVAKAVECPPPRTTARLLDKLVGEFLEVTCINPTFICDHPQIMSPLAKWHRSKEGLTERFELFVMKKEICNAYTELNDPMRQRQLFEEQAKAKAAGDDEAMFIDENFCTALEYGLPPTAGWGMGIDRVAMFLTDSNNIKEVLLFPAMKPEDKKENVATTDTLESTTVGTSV
T3 sequence (Q15046 whole entry): as above
T2 sequence (Q15046 whole entry): as above

In the case of `CCC(C(=O)O)n1c(=NC(=O)c2cccc(Cl)c2)sc2ccc(Cl)cc21` (stereo not shown) [Example 361, 2-(5-chloro-2-((3-chlorobenzoyl)imino)benzo[d]thiazol-3(2H)-yl)butanoic acid], the “Yeast cell proliferation rates KRS-LR (%)” value in data set [1] worked out at 34.6%. Also, the “Yeast cell proliferation rates KRS-AIMP2 (%)” value in data set [2] came to 104.3%. The “Yeast cell proliferation rates KRS-AIMP3 (%)” value in data set [3] is recorded as 108.4%. In data set [4], this compound came in with an IC50 of 142 µM. Moreover, the IC50 at 5 h in data set [5] came out at 581 µM.
As for `O=C(O)Cn1c(=NC(=O)c2cccc(C(F)(F)F)c2)sc2c(F)cccc21` [Example 356, 2-(7-fluoro-2-((3-(trifluoromethyl)benzoyl)imino)benzo[d]thiazol-3(2H)-yl)acetic acid], in data set [4], the IC50 worked out at 40.9 µM. Besides, the IC50 at 5 h in data set [5] stood at 1190 µM.
On the same counts, the results for `CCC(C(=O)O)n1c(=NC(=O)c2cccc(F)c2)sc2cc(F)c(F)cc21` (stereo not shown) [Example 442, 2-(5,6-difluoro-2-((3-fluorobenzoyl)imino)benzo[d]thiazol-3(2H)-yl)butanoic acid] are 80 µM and 361 µM.
`CCC(C(=O)O)n1c(=NC(=O)c2cc(F)cc(F)c2)sc2ccccc21` (stereo not shown) [Example 78, 2-[2-(3,5-difluorobenzoylimino)benzo[d]thiazol-3(2H)-yl]butanoic acid]: inhibition in data set [4] was half-maximal at 15.9 µM (IC50). In addition, the IC50 at 5 h in data set [5] was 636 µM.
With `CCC(C(=O)O)n1c(=NC(=O)c2ccc([N+](=O)[O-])cc2)sc2ccccc21` (stereo not shown) [Example 81, 2-[2-(4-nitrobenzoylimino)benzo[d]thiazol-3(2H)-yl]butanoic acid], the IC50 at 5 h in data set [5] is 828 µM.
In turn, `Cc1ccc(C(=O)N=c2sc3cc(C(F)(F)F)ccc3n2CC(=O)O)cc1` [Example 246, 2-(2-((4-methylbenzoyl)imino)-6-(trifluoromethyl)benzo[d]thiazol-3(2H)-yl)acetic acid] came in with a half-inhibitory concentration (IC50) in data set [4] of 12 µM. In addition, the half-inhibitory concentration (IC50) at 5 h in data set [5] came out at 245 µM.
The compound `Cc1ccc(C(=O)N=c2sc3c(C(F)(F)F)cccc3n2C(C)C(=O)O)cc1` (stereo not shown) [Example 98, 2-[2-(4-methylbenzoylimino)-7-(trifluoromethyl)benzo[d]thiazol-3(2H)-yl]propionic acid] returned an IC50 in data set [4] of 5.2 µM. Also, in data set [5], the IC50 at 5 h turned out to be 74.9 µM.
Take `CCC(C(=O)O)n1c2c(sc1=NC(=O)c1cccc(Cl)c1)CCCC2` (stereo not shown) [Example 299, 2-(2-(3-chlorobenzoylimino)-4,5,6,7-tetrahydrobenzo[d]thiazol-3(2H)-yl)butanoic acid]: in data set [1], the “Yeast cell proliferation rates KRS-LR (%)” value is reported as 13.8%. The “Yeast cell proliferation rates KRS-AIMP2 (%)” value in data set [2] is recorded as 92.0%. Further, the “Yeast cell proliferation rates KRS-AIMP3 (%)” value in data set [3] was 90.4%. The IC50 in data set [4] came to 7.9 µM. Moreover, the 50% inhibitory concentration (IC50) at 5 h in data set [5] came to 344 µM.
In turn, `CCC(C(=O)O)n1c(=NC(=O)c2cccc(Cl)c2)sc2cc(OC(F)(F)F)ccc21` (stereo not shown) [Example 176, 2-(2-((3-chlorobenzoyl)imino)-6-(trifluoromethoxy)benzo[d]thiazol-3(2H)-yl)butanoic acid] gave an IC50 in data set [4] of 5.8 µM. Besides, in data set [5], the IC50 at 5 h was 247 µM.
Take `CCC(C(=O)O)n1c(=NC(=O)c2cccc(C(F)(F)F)c2)sc2cc(F)c(F)cc21` (stereo not shown) [Example 293, 2-(5,6-difluoro-2-((3-(trifluoromethyl)benzoyl)imino)benzo[d]thiazol-3(2H)-yl)butanoic acid]: 1 µM corresponded to half-maximal inhibition in data set [4] (IC50). In data set [5], the concentration for half-maximal inhibition (IC50) at 5 h was found to be 144 µM.
`COc1cccc2sc(=NC(=O)c3cccc(C(F)(F)F)c3)n(C(C)C(=O)O)c12` (stereo not shown) [Example 283, 2-(4-methoxy-2-(3-(trifluoromethyl)benzoylimino)benzo[d]thiazol-3(2H)-yl)propionic acid] displayed an IC50 in data set [4] of 10 µM. For the same compound, the IC50 at 5 h in data set [5] was found to be 108 µM.
On to `O=C(O)Cn1c(=NC(=O)c2cccc(C(F)(F)F)c2)sc2ccccc21` [Example 125, 2-[2-(3-(trifluoromethyl)benzoylimino)benzo[d]thiazol-3(2H)-yl]acetic acid], for which, in data set [4], the IC50 stood at 8.4 µM. In addition, in data set [5], the IC50 at 5 h was determined as 7490 µM.
Compound `CC(C(=O)O)n1c(=NC(=O)c2cccc(Cl)c2)sc2cc(F)c(F)cc21` (stereo not shown) [Example 289, 2-(2-((3-chlorobenzoyl)imino)-5,6-difluorobenzo[d]thiazol-3(2H)-yl)propionic acid] yielded an IC50 in data set [4] of 9.8 µM. The IC50 at 5 h in data set [5] is 877 µM.
In data set [4], `CC(C(=O)O)n1c(=NC(=O)c2cccc(C(F)(F)F)c2)sc2c(Cl)cccc21` (stereo not shown) [Example 308, 2-(7-chloro-2-((3-(trifluoromethyl)benzoyl)imino)benzo[d]thiazol-3(2H)-yl)propionic acid] registered an IC50 of 6.6 µM. For the same compound, the IC50 at 5 h in data set [5] was 267 µM.
In the case of `CCC(C(=O)O)n1c(=NC(=O)c2cccc(C(F)(F)F)c2)sc2ccccc21` (stereo not shown) [Example 142, 2-[2-(3-(trifluoromethyl)benzoylimino)benzo[d]thiazol-3(2H)-yl]butanoic acid], in data set [1], the “Yeast cell proliferation rates KRS-LR (%)” value was 39.4%. The “Yeast cell proliferation rates KRS-AIMP2 (%)” value in data set [2] was determined as 95.0%. Further, in data set [3], the “Yeast cell proliferation rates KRS-AIMP3 (%)” value came out at 106.5%. Inhibition in data set [4] was half-maximal at 14.7 µM (IC50).
With `CC(C(=O)O)n1c(=NC(=O)c2cccc(Cl)c2)sc2cc(C(F)(F)F)ccc21` (stereo not shown) [Example 172, 2-(2-((3-chlorobenzoyl)imino)-6-(trifluoromethyl)benzo[d]thiazol-3(2H)-yl)propionic acid], the “Yeast cell proliferation rates KRS-LR (%)” value in data set [1] is given as 36.3%. Further, the “Yeast cell proliferation rates KRS-AIMP2 (%)” value in data set [2] came out at 90.0%. Further, the “Yeast cell proliferation rates KRS-AIMP3 (%)” value in data set [3] stood at 104.1%. For the same compound, the IC50 in data set [4] was found to be 37.9 µM.
Consider `CCC(C(=O)O)n1c(=NC(=O)c2cccc(Cl)c2)sc2c(Cl)cccc21` (stereo not shown) [Example 310, 2-(7-chloro-2-((3-chlorobenzoyl)imino)benzo[d]thiazol-3(2H)-yl)butanoic acid], for which the “Yeast cell proliferation rates KRS-LR (%)” value in data set [1] is 15.9%. Besides, in data set [2], the “Yeast cell proliferation rates KRS-AIMP2 (%)” value is 100.2%. For the same compound, the “Yeast cell proliferation rates KRS-AIMP3 (%)” value in data set [3] was determined as 105.4%. In data set [4], this compound came in with an IC50 of 6.5 µM.
Consider `CCC(C(=O)O)n1c(=NC(=O)c2ccccc2)sc2ccccc21` (stereo not shown) [Example 136, 2-[2-(benzoylimino)benzo[d]thiazol-3(2H)-yl]butanoic acid], for which the IC50 at 5 h in data set [5] was 281 µM.
`CCC(C(=O)O)n1c(=NC(=O)c2ccc(C)cc2)sc2c(F)cccc21` (stereo not shown) [Example 93, 2-[7-fluoro-2-(4-methylbenzoylimino)benzo[d]thiazol-3(2H)-yl]butanoic acid]: in data set [1], the “Yeast cell proliferation rates KRS-LR (%)” value stood at 33.2%. Besides, the “Yeast cell proliferation rates KRS-AIMP2 (%)” value in data set [2] is on record as 88.5%. Moreover, the “Yeast cell proliferation rates KRS-AIMP3 (%)” value in data set [3] was determined as 102.7%. This compound also had an IC50 in data set [4] of 17.6 µM.
The compound `CC(C(=O)O)n1c(=NC(=O)c2cccc(Cl)c2)sc2cc(F)c(C(F)(F)F)cc21` (stereo not shown) [Example 388, 2-(2-((3-chlorobenzoyl)imino)-6-fluoro-5-(trifluoromethyl)benzo[d]thiazol-3(2H)-yl)propionic acid] returned an IC50 in data set [4] of 37.4 µM. Also, the IC50 at 5 h in data set [5] was found to be 368 µM.
